The values below come from patent publication US20240150365A1 (Hotspot Therapeutics, Inc., priority 2022, published 2024).

pIC50: −log10 of the molar value.

Experiment [1] addresses T1, MALT1 (Homo sapiens, UniProt Q9UDY8).
T1 construct: Avi-tagged FL MALT-1 (Pharmaron, stored at −70° C.); Avi tag
T1 sequence (Q9UDY8 1-824): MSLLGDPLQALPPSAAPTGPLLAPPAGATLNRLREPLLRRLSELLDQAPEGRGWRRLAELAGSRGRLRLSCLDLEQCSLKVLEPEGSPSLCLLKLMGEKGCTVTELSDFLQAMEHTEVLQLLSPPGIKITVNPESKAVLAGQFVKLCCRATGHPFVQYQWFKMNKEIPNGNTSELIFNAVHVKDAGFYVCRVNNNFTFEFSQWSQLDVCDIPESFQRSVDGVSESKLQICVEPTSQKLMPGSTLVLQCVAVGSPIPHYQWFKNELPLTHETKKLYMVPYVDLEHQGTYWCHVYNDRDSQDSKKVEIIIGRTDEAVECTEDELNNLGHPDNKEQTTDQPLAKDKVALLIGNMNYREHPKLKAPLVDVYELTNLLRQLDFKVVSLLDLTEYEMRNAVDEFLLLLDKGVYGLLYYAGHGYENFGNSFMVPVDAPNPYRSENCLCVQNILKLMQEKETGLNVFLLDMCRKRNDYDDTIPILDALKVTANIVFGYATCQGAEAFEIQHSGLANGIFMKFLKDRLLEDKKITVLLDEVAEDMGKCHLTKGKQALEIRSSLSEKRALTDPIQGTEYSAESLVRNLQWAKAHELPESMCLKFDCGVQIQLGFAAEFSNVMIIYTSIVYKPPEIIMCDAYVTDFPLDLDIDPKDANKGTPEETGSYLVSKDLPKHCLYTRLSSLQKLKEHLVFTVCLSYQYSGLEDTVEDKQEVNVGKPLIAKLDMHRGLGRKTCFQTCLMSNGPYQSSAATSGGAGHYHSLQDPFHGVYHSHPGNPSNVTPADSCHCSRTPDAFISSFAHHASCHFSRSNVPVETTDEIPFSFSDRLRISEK
Put plainly: MALT-1 Fluorogenic Peptide Cleavage Assay (MALT1 inhibition assay). The format is biochemical. To be noted: Avi-tagged FL MALT-1, Ac-LRSR-AMC peptide substrate, 30 min pre-incubation, 90 min reaction. Here is the method:
Inhibition of MALT1 activity by the presence of small molecules was evaluated using MALT-1 Fluorogenic Peptide Cleavage Assay. The assay utilizes a quenched AMC-labelled peptide that contains the MALT-1 recognition sequence and cleavage site (LRSR). MALT-1 mediated cleavage of the peptide relieves the quenching and leads to an increase in fluorescence at excitation (342 nm) and emission (441 nm). The following reagents were obtained commercially and used to prepare standard reagent formulations as further described below: […] The standard reagent formulations used in this assay were prepared and stored as follows. A 1.1 M solution of sodium citrate (161.3 g, 500 mL) was prepared and stored at room temperature. A 10% (w/v) CHAPS solution (2.0 g, 20 mL) was prepared and stored at 4° C. A 500 mM HEPES solution having pH of 6.89 was prepared from 200 mL of a 1 M HEPES solution having a pH of 7.5 using concentrated hydrochloric acid and brought to a final volume of 400 mL with […]® H2O. The substrate, 10 mM Ac-LRSR-AMC Peptide, was prepared (10 mg, 1.370 mL DMSO) and stored at -20° C. Compounds were plated to provide a 2% DMSO final concentration using a ProxiPlate-384 Plus F Black 384-shallow well microplate. The assay-ready plates were equilibrated to room temperature. […] DMSO was added only when compound plates had not been DMSO-backfilled to 2%. MALT-1 was thawed and kept on ice. Peptide substrate was thawed on the bench under ambient conditions. A MALT-1 enzyme working stock was prepared from Avi-tagged FL MALT-1 (40 nM in a prepared reagent volume of 16.5 μL) and the reaction buffer (13.0 mL). MALT1 working stock (5 μL) was added to each well of the microplate. MALT-1 was pre-incubated with compounds for 30 minutes at room temperature. […] The plates were covered and incubated on the bench at room temperature for 90 minutes. Fluorescence intensity was determined using a CLARIOstar microplate reader (BMG LABTECH) using the optimised AMC mode. Before taking readings, a 70% gain was applied on the neutral control well. Compound data were normalised to % Inhibition and used to plot sigmoidal concentration response curves to yield various parameters including IC50. […] Compounds in which an IC50 was not measured are designated as “N/A”.

In experiment [2] the test system is NF-kB. The experiment in a line: NF-kB reporter assay in Jurkat cells stimulated with aCD3/aCD28/PMA. Type of experiment: cell-based. The conditions noted are these: Homo sapiens, Jurkat, Jurkat cells, 1 hr compound incubation, aCD3/aCD28/PMA stimulation 4 hr, One-Glo readout; read-out: NF-kB Reporter Assay IC50. Here is the method: Jurkat cells were maintained in complete RPMI 1640 media supplemented with 10% FBS. Prior to the assay, 120 nL of the serial diluted compound was added in each well of 384-well flat bottom white plate (Corning #3570) by using liquid handler Echo550. Jurkat cells were harvested by centrifugation at 120 g for 10 min and resuspended in fresh RPMI 1640 media without serum. 30 μL of cells (25,000 cells) were seeded in each well of 384-well plate containing compound. After 1 hr incubation at 37° C. in a 5% CO2 incubator, 10 μL of diluted aCD3/aCD28/PMA (final concentration at 5 μg/mL, 5 μg/mL and 0.03 μg/mL, respectively) in RPMI 1640 without serum were added to each well. After incubation at 37° C. in 5% CO2 for 4 hr, 30 μL of One-Glo reagent (Promega #E6120) was added into each well. The plate was left at room temperature for 5 min and the signal was measured on EnVision (PerkinElmer).
Compounds in which an IC50 was not measured are designated as “N/A”.
For orientation: In a reporter assay the amount or activity of a reporter protein is the signal.

For the molecule `Cc1cc(C(F)(F)F)nn1-c1ccc(S(=O)(=O)Nc2cccc3cnn(C)c23)cn1` [Example I-43, 6-[5-Methyl-3-(Trifluoromethyl)Pyrazol-1-Yl]-N-(1-Methylindazol-7-yl)Pyridine-3-Sulfonamide], the pIC50 in experiment [1] is 5.60 to 6.00; in experiment [2], greater than 6.40.

Consider `Cc1cn(-c2ccc(S(=O)(=O)Nc3cccc4cnn(C)c34)cn2)nc1C(F)(F)F` [Example I-44, 6-[4-Methyl-3-(Trifluoromethyl)Pyrazol-1-Yl]-N-(1-Methylindazol-7-yl)Pyridine-3-Sulfonamide], for which the pIC50 in experiment [1] was 6.00 to 6.40; in experiment [2] it was greater than 6.40.

In the case of `COc1ccc2cnn(C)c2c1N(C)S(=O)(=O)c1ccc(-c2cc(C(F)(F)F)n[nH]2)nc1` [Example I-48, N-(6-Methoxy-1-Methyl-1H-Indazol-7-yl)-N-Methyl-6-(3-(Trifluoromethyl)-1H-Pyrazol-5-yl)Pyridine-3-Sulfonamide], the pIC50 in experiment [1] and in experiment [2] was greater than 6.40 in each case.

Regarding `COc1ccc2cnn(C)c2c1NS(=O)(=O)c1ccc(-c2cc(C(F)(F)F)n(C)n2)nc1` [Example I-49, N-(6-Methoxy-1-Methyl-1H-Indazol-7-yl)-6-(1-Methyl-5-(Trifluoromethyl)-1H-Pyrazol-3-yl)Pyridine-3-Sulfonamide], the pIC50 in experiment [1] and in experiment [2] was greater than 6.40 in each case.

Consider `Cn1ncc2cccc(NS(=O)(=O)c3ccc(-n4cc(C(F)F)cn4)nc3)c21` [Example I-50, 6-[4-(Difluoromethyl)Pyrazol-1-Yl]-N-(1-Methylindazol-7-yl)Pyridine-3-Sulfonamide], for which the pIC50 in experiment [1] is 6.00 to 6.40; in experiment [2], greater than 6.40.

Consider `Cn1ncc2cccc(NS(=O)(=O)c3ccc(-n4ccc(C(F)F)n4)nc3)c21` [Example I-51, 6-[3-(Difluoromethyl)Pyrazol-1-Yl]-N-(1-Methylindazol-7-yl)Pyridine-3-Sulfonamide], for which the pIC50 in experiment [1] was 5.60 to 6.00; in experiment [2], greater than 6.40.

`Cc1cnn(-c2ccc(S(=O)(=O)Nc3cccc4cnn(C)c34)cn2)n1` [Example I-52, N-(1-Methyl-1H-Indazol-7-yl)-6-(4-Methyl-2H-1,2,3-Triazol-2-yl)Pyridine-3-Sulfonamide]: the pIC50 in experiment [1] is less than 5.60; in experiment [2] it was 5.60 to 6.00.

`Cc1cn(-c2ccc(S(=O)(=O)Nc3cccc4cnn(C)c34)cn2)nn1` [Example I-53, 6-(4-Methyl-1H-1,2,3-Triazol-1-yl)-N-(1-Methyl-1H-Indazol-7-yl)Pyridine-3-Sulfonamide]: the pIC50 in experiment [1] is less than 5.60; in experiment [2], 6.00 to 6.40.

In the case of `Cn1ncc2cccc(NS(=O)(=O)c3ccc(-n4cc(C5(F)CC5)cn4)nc3)c21` [Example I-55], the pIC50 was less than 5.60 in experiment [1] and greater than 6.40 in experiment [2].

For the molecule `Cn1ncc2cccc(NS(=O)(=O)c3ccc(-n4cc(C5(O)CC5)cn4)nc3)c21` [Example I-56, 6-(4-(1-hydroxycyclopropyl)-1H-pyrazol-1-yl)-N-(1-methyl-1H-indazol-7-yl)pyridine-3-sulfonamide], the pIC50 in experiment [1] was less than 5.60; in experiment [2], greater than 6.40.

As for `Cc1cnn(-c2ccc(S(=O)(=O)Nc3cccc4cnn(C)c34)cn2)c1C` [Example I-57, 6-(4,5-Dimethylpyrazol-1-yl)-N-(1-Methylindazol-7-yl)Pyridine-3-Sulfonamide], the values for the pIC50 in experiment [1] and in experiment [2] were less than 5.60 and greater than 6.40, respectively.

As to `Cc1cn(-c2ccc(S(=O)(=O)Nc3cccc4cnn(C)c34)cn2)nc1C` [Example I-58, 6-(3,4-Dimethylpyrazol-1-yl)-N-(1-Methylindazol-7-yl)Pyridine-3-Sulfonamide], the results for the pIC50 in experiment [1] and in experiment [2] were 5.60 to 6.00 and greater than 6.40, respectively.

As for `Cc1nn(-c2ccc(S(=O)(=O)Nc3cccc4cnn(C)c34)cn2)c(C)c1C` [Example I-59, N-(1-Methyl-1H-Indazol-7-yl)-6-(3,4,5-Trimethyl-1H-Pyrazol-1-yl)Pyridine-3-Sulfonamide], the pIC50 is less than 5.60 in experiment [1] and greater than 6.40 in experiment [2].

Turning to `Cn1ncc2cccc(NS(=O)(=O)c3ccc(-n4nccc4C4CC4)nc3)c21` [Example I-62, 6-(5-Cyclopropylpyrazol-1-yl)-N-(1-Methylindazol-7-yl)Pyridine-3-Sulfonamide], the negative-log IC50 (pIC50) in experiment [1] was less than 5.60; in experiment [2] it was greater than 6.40.

For the molecule `Cc1ccc2cnn(C)c2c1NS(=O)(=O)c1ccc(-c2cc(C(F)(F)F)n[nH]2)nc1` [Example I-63, N-(1,6-dimethyl-1H-indazol-7-yl)-6-(5-(trifluoromethyl)-1H-pyrazol-3-yl)pyridine-3-sulfonamide], the pIC50 in experiment [1] and in experiment [2] was greater than 6.40 each time.

Consider `Cn1nnc2cccc(NS(=O)(=O)c3ccc(-n4cc(C(F)(F)F)cn4)nc3)c21` [Example I-64, N-(1-Methyl-1H-Benzo[D][1,2,3]Triazol-7-yl)-6-(4-(Trifluoromethyl)-1H-Pyrazol-1-yl)Pyridine-3-Sulfonamide], for which the negative-log IC50 (pIC50) in experiment [1] and in experiment [2] was less than 5.60 throughout.

`Cc1cc(S(=O)(=O)Nc2cccc3cnn(C)c23)cnc1-n1cc(C(F)(F)F)cn1` [Example I-65, 5-Methyl-N-(1-Methyl-1H-Indazol-7-yl)-6-(4-(Trifluoromethyl)-1H-Pyrazol-1-yl)Pyridine-3-Sulfonamide]: the pIC50 in experiment [1] was 5.60 to 6.00; in experiment [2], greater than 6.40.

Consider `[2H]C([2H])([2H])Oc1ccc2cnn(C)c2c1NS(=O)(=O)c1ccc(-n2cc(C(F)(F)F)cn2)nc1` [Example I-68, N-(6-(Methoxy-D3)-1-Methyl-1H-Indazol-7-yl)-6-(4-(Trifluoromethyl)-1H-Pyrazol-1-yl)Pyridine-3-Sulfonamide], for which the pIC50 in experiment [1] and in experiment [2] was greater than 6.40 each time.

Regarding `[2H]C([2H])([2H])c1ccc2cnn(C)c2c1NS(=O)(=O)c1ccc(-n2cc(C(F)(F)F)cn2)nc1` [Example I-69, N-(1-Methyl-6-(Methyl-Ds)-1H-Indazol-7-yl)-6-(4-(Trifluoromethyl)-1H-Pyrazol-1-yl)Pyridine-3-Sulfonamide], the pIC50 in experiment [1] and in experiment [2] was greater than 6.40 each time.

With `[2H]C([2H])(C)c1ccc2cnn(C)c2c1NS(=O)(=O)c1ccc(-n2cc(C(F)(F)F)cn2)nc1` [Example I-70, N-(6-(Ethyl-1,1-D2)-1-Methyl-1H-Indazol-7-yl)-6-(4-(Trifluoromethyl)-1H-Pyrazol-1-yl)Pyridine-3-Sulfonamide], the pIC50 in experiment [1] and in experiment [2] was greater than 6.40 each time.

In general, pIC50 refers to the negative decadic logarithm of the IC50, by convention in mol/L.
